Reference: ChEMBL document CHEMBL6074682, “Expanding the therapeutic window of gramicidin S towards a safe and effective systemic treatment of methicillin-resistant S. aureus infections” (Eur J Med Chem, 2025)
Converted amounts (≈) assume the structure as drawn. Peptide text beside a SMILES is read from it.

Legend:
[1] = Hemolytic activity in sheep RBC; format: toxicity, cell-based, Ovis aries, Erythrocyte; conditions: sheep red blood cells
[2] = Therapeutic index, ratio of HC50 for human RBC to MIC for antibacterial activity against methicillin-sensitive Staphylococcus aureus ATCC 29213 clinical isolate; format: toxicity, cell-based; conditions: pooled result: one value given for 2 cell lines, strains, targets or settings, read-out: TI
Staphylococcus aureus [3] = experiment: Antibacterial activity against methicillin-resistant Staphylococcus aureus ATCC USA 300 clinical isolate assessed as bacterial growth inhibition at 256 to 0.125 ug/ml in CAMH broth medium incubated for 16 to 20 hrs by broth microdilution method; format: functional; conditions: dose 256-0.125 µg/ml, time 16-20 hrs
[4] = Nephrotoxicity against HEK293 cells assessed as cell viability incubated for 24 hrs by MTT assay; format: toxicity, cell-based; conditions: human
[5] = Retention time of the compound by RP-HPLC analysis; format: physicochemical
Staphylococcus aureus [6] = experiment: Antibacterial activity against methicillin-sensitive Staphylococcus aureus ATCC 29213 clinical isolate assessed as bacterial growth inhibition at 256 to 0.125 ug/ml in CAMH broth medium incubated for 16 to 20 hrs by broth microdilution method; format: functional; conditions: dose 256-0.125 µg/ml, time 16-20 hrs
[7] = Hemolytic activity in human RBC assessed as hemolysis incubated for 1 hr by absorbance based assay; format: toxicity, cell-based, Erythrocyte; conditions: human red blood cells

CC(C)C[C@@H]1NC(=O)[C@H](CCCN)NC(=O)[C@H](C(C)C)NC(=O)[C@@H]2CCCN2C(=O)[C@@H](Cc2ccccc2)NC(=O)[C@H](CC(C)C)NC(=O)[C@H](CCCN)NC(=O)[C@H](C(C)C)NC(=O)[C@@H]2CCCN2C(=O)[C@@H](CCCNC(=N)N)NC1=O (HELM PEPTIDE1{L.[dF].P.V.[Orn].L.[dR].P.V.[Orn]}$PEPTIDE1,PEPTIDE1,1:R1-10:R2$$$V2.0)
HC50 [1]: > 115 µg/mL
selectivity ratio [2]: 4.9
MIC (Staphylococcus aureus [3]): 8 µg/mL (≈ 6.95 µM)
IC50 at 24 h [4]: 18.7 µg/mL (≈ 16.2 µM)
Retention_time [5]: 16.22 min
MIC (Staphylococcus aureus [6]): 8 µg/mL (≈ 6.95 µM)
HC50 at 1 h [7]: 39.2 µg/mL
